Data taken from ChEMBL document CHEMBL5252622, “Discovery of a brain-sparing GIRK1/4 inhibitor for pharmacological cardioversion of atrial fibrillation” (Bioorg Med Chem Lett, 2023).
Values after ≈ are worked out from the molar mass of the structure shown. One block for each compound: values may come before it. Active and inactive are the calls of the source. The calls are words filed in the database; no cut-off is given here.

What was measured:
Kir3.1/Kir3.4 = target: T1, Kir3.1/Kir3.4 (Homo sapiens, UniProt P48544+P48549); assay: Inhibition of recombinant human GIRK1/4 channel; format: protein-complex assay
T1 sequence (P48549 whole entry): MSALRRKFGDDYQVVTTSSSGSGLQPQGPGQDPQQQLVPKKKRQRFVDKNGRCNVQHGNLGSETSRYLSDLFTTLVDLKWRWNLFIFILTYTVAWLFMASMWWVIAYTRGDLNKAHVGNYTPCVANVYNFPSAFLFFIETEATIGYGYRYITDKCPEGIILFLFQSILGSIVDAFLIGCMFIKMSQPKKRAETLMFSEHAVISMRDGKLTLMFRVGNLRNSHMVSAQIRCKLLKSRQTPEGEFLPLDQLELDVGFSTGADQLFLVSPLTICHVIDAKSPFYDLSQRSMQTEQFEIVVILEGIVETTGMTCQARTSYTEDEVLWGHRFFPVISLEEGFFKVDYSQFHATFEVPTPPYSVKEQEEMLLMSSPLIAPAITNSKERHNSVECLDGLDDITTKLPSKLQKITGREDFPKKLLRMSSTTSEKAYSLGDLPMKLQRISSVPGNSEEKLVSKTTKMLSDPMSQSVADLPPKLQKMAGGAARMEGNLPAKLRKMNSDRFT
T1 sequence (P48544 whole entry): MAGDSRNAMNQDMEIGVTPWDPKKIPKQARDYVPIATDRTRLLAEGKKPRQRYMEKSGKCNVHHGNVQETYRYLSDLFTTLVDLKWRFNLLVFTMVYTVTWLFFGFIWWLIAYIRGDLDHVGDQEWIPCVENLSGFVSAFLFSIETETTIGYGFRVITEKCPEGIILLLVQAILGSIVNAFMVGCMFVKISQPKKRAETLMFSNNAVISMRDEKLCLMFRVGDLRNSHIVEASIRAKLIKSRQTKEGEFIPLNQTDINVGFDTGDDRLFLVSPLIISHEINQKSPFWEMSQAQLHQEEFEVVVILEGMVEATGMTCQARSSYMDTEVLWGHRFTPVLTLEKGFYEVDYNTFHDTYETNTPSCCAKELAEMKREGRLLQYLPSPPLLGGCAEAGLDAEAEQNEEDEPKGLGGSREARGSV

[1] = Aqueous solubility of the compound at pH 6.8; format: physicochemical
MDCK = assay: Substrate activity at p-glycoprotein in MDCK cells overexpressing MDR1 assessed as efflux ratio of permeability from basolateral to apical side over apical to basolateral side; format: cell-based; settings: Canis lupus familiaris
[2] = Apparent permeability across apical to basolateral side in MDCK cells; format: ADME, cell-based, Canis lupus familiaris; settings: dog
[3] = Terminal half-life in iv dosed rat; format: ADME, organism-based; settings: in vivo, read-out: beta t1/2 (converted)
[4] = Clearance in iv dosed rat; format: ADME, organism-based; settings: in vivo
Cavia porcellus [5] = species on record: Cavia porcellus; assay: Effect on fingolimod-induced shortening of AERP in guinea pig model assessed as restoration of shortened AERP measured at 30 to 60 mins; format: functional; settings: time 30-60 min
Cavia porcellus [6] = assay: Effect on AERP in guinea pig assessed as increase in AERP interval at 3 mg/kg, iv measured for 60 mins; format: functional, organism-based
Cavia porcellus [7] = assay: Effect on fingolimod-induced shortening of AERP in guinea pig model assessed as prolongation of shortened AERP at 3 mg/kg, iv measured at 20 to 30 mins; format: functional, organism-based; settings: time 20-30 min
[8] = Toxicity in langendorff-perfused guinea pig heart assessed as effect on PR interval at 10 uM; format: tissue-based, Cavia porcellus
[9] = Toxicity in langendorff-perfused guinea pig heart assessed as effect on coronary artery perfusion pressure at 10 uM; format: tissue-based, Cavia porcellus
[10] = Toxicity in langendorff-perfused guinea pig heart assessed as effect on QT interval at 10 uM; format: tissue-based, Cavia porcellus
[11] = Toxicity in langendorff-perfused guinea pig heart assessed as effect on left ventricular action potential duration at 10 uM; format: tissue-based, Cavia porcellus
[12] = Toxicity in langendorff-perfused guinea pig heart assessed as effect on left atrial action potential duration at 10 uM; format: tissue-based, Cavia porcellus
[13] = target: Sodium channel protein type 5 subunit alpha (Homo sapiens, UniProt Q14524); assay: Inhibition of recombinant human Nav1.5; format: toxicity
[14] = target: Voltage-dependent L-type calcium channel subunit alpha-1C (Homo sapiens, UniProt Q13936); assay: Inhibition of recombinant human Cav1.2; format: toxicity
[15] = target: T2, Potassium voltage-gated channel subfamily KQT member 1 (Homo sapiens, UniProt P51787); assay: Inhibition of recombinant human KCNQ1; format: toxicity
T2 sequence (P51787 whole entry): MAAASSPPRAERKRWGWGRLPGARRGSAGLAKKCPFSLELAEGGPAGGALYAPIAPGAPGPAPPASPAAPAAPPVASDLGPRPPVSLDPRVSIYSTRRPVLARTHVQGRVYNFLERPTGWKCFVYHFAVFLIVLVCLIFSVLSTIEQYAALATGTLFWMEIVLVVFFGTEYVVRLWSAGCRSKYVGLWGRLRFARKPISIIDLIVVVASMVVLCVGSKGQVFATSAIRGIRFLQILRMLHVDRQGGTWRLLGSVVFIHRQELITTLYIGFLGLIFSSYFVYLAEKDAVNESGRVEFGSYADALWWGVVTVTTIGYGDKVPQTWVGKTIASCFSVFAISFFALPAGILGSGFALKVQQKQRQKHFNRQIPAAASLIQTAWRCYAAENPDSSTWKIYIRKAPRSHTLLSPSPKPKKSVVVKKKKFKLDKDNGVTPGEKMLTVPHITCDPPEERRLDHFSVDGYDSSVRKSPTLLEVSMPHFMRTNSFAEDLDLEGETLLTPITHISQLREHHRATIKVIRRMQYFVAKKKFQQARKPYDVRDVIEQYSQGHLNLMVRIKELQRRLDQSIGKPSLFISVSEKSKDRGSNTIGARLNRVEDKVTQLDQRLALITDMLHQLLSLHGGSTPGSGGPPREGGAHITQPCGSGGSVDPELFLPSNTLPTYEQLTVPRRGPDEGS

[16] = target: Voltage-gated inwardly rectifying potassium channel KCNH2 (Homo sapiens, UniProt Q12809); assay: Inhibition of recombinant hERG in the presence of dofetilide by competitive binding assay; format: toxicity
[17] = Equilibrium solubility of the compound at pH 7.4; format: physicochemical; settings: buffer
[18] = Brain to plasma ratio in iv dosed rat measured after 30 mins; format: ADME, organism-based; settings: read-out: BPR
Kir3.1/Kir3.2 [19] = target: T3, Kir3.1/Kir3.2 (Homo sapiens, UniProt P48051+P48549); assay: Inhibition of GIRK1/2 (unknown origin) channel; format: protein-complex assay
T3 sequence (P48549 whole entry): T1 sequence (P48549 whole entry)
T3 sequence (P48051 whole entry): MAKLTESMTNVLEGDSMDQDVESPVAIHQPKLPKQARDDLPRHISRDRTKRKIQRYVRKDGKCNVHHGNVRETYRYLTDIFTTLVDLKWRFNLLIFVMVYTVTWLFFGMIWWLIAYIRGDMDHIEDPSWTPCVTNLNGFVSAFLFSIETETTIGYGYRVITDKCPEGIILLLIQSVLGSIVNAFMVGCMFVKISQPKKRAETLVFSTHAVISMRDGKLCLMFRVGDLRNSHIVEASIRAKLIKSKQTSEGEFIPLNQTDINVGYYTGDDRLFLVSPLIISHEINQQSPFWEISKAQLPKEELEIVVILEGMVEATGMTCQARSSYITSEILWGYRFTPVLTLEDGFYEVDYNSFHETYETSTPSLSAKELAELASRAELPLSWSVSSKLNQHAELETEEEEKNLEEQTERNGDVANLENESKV

[20] = Toxicity in rat assessed as NOAEL administered as single dose; settings: in vivo
[21] = Toxicity in rat assessed as NOAEL administered as repeated dose for 6 days; settings: in vivo, time 6 day
[22] = Cmax in rat administered as single dose; format: ADME; settings: in vivo
[23] = Cmax in rat administered as repeated dose for 6 days; format: ADME; parameters: time 6 day; settings: in vivo
Kir3.1/Kir3.2 [24] = target: T3, Kir3.1/Kir3.2; assay: Inhibition of recombinant human GIRK1/2 channel; format: protein-complex assay
[25] = Intrinsic clearance in human liver microsomes; format: ADME, Microsome; settings: read-out: CLH
[26] = Intrinsic clearance in rat liver microsomes; format: ADME, Microsome; settings: read-out: CLH
[27] = Toxicity in iv dosed rat assessed as neurobehavioral disturbances by measuring convulsions; format: organism-based; settings: in vivo
[28] = Toxicity in iv dosed rat assessed as neurobehavioral disturbances by measuring increase in motor activity; format: organism-based; settings: in vivo

Voltage-gated inwardly rectifying potassium channel KCNH2, sequence (Q12809 whole entry): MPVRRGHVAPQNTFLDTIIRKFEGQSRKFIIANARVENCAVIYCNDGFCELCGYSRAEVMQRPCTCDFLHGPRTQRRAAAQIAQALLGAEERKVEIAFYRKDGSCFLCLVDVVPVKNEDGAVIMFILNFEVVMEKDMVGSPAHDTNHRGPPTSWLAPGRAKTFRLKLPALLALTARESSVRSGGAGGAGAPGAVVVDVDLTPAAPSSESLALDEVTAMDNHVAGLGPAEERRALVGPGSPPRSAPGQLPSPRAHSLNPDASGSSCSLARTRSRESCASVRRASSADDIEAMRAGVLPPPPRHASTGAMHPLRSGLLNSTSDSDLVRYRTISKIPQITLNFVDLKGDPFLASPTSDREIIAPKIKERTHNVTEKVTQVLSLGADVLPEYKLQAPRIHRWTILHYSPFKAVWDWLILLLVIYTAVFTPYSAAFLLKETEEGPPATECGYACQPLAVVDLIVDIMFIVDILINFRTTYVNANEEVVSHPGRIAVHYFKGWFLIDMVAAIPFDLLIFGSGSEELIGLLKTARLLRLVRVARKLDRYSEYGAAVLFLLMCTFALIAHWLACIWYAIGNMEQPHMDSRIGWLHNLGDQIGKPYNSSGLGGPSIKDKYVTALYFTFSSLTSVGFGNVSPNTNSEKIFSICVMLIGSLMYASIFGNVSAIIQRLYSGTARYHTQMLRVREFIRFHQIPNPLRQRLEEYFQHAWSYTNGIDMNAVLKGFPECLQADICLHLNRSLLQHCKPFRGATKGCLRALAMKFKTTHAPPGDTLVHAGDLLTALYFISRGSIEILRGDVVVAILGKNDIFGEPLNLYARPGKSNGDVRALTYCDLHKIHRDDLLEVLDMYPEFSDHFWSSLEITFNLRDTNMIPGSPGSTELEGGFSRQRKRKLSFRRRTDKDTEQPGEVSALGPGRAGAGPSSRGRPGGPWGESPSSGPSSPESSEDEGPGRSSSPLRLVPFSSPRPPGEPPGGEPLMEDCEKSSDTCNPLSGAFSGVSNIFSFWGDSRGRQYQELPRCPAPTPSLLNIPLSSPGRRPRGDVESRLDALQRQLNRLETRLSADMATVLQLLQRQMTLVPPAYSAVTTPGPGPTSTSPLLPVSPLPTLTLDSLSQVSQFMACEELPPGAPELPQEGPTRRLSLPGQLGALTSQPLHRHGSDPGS
Sodium channel protein type 5 subunit alpha, sequence (Q14524 whole entry): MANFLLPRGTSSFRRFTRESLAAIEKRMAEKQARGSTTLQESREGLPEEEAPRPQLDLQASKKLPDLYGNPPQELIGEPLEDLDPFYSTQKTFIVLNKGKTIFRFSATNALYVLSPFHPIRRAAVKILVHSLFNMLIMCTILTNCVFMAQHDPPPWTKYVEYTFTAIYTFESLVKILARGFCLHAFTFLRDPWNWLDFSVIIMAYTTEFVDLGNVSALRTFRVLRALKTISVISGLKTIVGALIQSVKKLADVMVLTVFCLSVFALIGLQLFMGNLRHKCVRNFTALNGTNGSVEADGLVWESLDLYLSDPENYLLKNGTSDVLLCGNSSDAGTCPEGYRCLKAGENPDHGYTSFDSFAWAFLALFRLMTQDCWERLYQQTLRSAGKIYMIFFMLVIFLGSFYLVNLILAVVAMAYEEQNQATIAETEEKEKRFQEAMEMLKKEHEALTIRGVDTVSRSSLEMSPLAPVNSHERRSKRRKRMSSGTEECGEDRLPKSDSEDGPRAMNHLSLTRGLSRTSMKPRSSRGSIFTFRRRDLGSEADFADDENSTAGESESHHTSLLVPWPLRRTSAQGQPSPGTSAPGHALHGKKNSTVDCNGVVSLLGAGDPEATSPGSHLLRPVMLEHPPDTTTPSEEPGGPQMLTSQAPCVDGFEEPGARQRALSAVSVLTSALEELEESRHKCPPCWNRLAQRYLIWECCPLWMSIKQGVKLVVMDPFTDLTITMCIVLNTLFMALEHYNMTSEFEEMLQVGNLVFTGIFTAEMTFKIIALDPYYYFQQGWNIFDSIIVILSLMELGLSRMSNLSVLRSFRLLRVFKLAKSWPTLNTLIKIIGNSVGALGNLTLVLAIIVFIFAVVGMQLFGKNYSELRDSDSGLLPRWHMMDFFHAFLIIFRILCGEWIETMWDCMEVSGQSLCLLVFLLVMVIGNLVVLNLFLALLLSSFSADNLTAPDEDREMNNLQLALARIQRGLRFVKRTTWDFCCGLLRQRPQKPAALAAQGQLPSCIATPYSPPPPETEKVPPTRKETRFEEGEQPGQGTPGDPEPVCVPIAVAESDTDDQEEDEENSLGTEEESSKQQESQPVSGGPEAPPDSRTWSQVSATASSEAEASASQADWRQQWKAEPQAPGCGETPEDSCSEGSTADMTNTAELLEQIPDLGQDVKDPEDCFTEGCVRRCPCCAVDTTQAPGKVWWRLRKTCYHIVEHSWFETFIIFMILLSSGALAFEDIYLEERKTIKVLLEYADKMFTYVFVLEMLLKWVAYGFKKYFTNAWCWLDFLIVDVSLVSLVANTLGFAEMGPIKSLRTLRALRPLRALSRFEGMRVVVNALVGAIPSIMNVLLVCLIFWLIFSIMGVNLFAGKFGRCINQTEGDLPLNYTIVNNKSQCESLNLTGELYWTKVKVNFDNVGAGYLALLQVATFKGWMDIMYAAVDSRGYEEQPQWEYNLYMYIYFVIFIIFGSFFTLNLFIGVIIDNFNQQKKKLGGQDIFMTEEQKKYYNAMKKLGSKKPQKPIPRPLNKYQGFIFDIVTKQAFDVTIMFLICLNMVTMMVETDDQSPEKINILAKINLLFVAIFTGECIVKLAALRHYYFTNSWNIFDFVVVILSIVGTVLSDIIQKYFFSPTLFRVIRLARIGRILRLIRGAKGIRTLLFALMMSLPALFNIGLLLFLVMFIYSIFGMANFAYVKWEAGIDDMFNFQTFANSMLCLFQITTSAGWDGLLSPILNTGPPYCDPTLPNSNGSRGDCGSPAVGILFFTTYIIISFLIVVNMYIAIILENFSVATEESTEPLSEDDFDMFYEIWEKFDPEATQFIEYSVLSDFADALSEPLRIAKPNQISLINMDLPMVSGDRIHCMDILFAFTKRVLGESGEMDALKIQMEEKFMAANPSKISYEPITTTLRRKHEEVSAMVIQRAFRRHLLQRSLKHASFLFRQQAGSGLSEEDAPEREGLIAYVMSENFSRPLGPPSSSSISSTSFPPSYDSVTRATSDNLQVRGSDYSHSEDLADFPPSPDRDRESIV

Structure (SMILES): Cc1cc(=O)c2c(OCCOCCOCCOCCO)ncc(Cl)c2n1-c1c(Cl)cccc1Cl
solubility [1]: 600 µM (≈ 319 µg/mL)
Ratio (MDCK): 5.7
Papp A→B [2]: 23 ×10⁻⁶ cm/s

Structure (SMILES): O=c1cc(CO)n(-c2c(Cl)cccc2Cl)c2c(Cl)cnc(OC(CO)CO)c12
IC50 (Kir3.1/Kir3.4): 250 nM
solubility [1]: 300 µM (≈ 134 µg/mL)
Ratio (MDCK): 18.3
Papp A→B [2]: 6.9 ×10⁻⁶ cm/s

Structure (SMILES): COc1ncc(C)c2c1c(=O)cc(CO)n2-c1c(Cl)cccc1Cl
IC50 (Kir3.1/Kir3.4): 290 nM
solubility [1]: 280 µM (≈ 102 µg/mL)
Papp A→B [2]: 8.5 ×10⁻⁶ cm/s

Structure (SMILES): Cc1cc(=O)c2c(F)cncc2n1-c1c(Cl)cc(C#N)cc1Cl
IC50 (Kir3.1/Kir3.4): 190 nM
IC50 (Kir3.1/Kir3.2 [24]): 200 nM
solubility [1]: 52 µM (≈ 18.1 µg/mL)
microsomal CLint [25]: 12 µL/min/mg
microsomal CLint [26]: 18 µL/min/mg
IC50 [13]: > 50000 nM
IC50 [14]: > 50000 nM
IC50 [15]: > 50000 nM
IC50 [16]: > 30000 nM
Ratio (MDCK): 1.8
Papp A→B [2]: 13.9 ×10⁻⁶ cm/s
Activity [27]: Toxic
Activity [28]: Toxic

More lines, main results first:

IC50 (Kir3.1/Kir3.4): 87 nM
solubility [1]: 230 µM (≈ 109 µg/mL)
Papp A→B [2]: 16.6 ×10⁻⁶ cm/s
Structure (SMILES): Cc1cc(=O)c2c(OCC(O)CC(O)CO)ncc(Cl)c2n1-c1c(Cl)cccc1Cl (stereo unspecified)
Ratio (MDCK): 4.5

solubility [1]: 720 µM (≈ 363 µg/mL)
Papp A→B [2]: 7.5 ×10⁻⁶ cm/s
Structure (SMILES): Cc1cc(=O)c2c(OCC(O)COCC(O)CO)ncc(Cl)c2n1-c1c(Cl)cccc1Cl (stereo unspecified)
Ratio (MDCK): 15

half-life [3]: 1.3 h
clearance [4]: 35 mL/min/kg
EC90 (Cavia porcellus [5]): 1200 nM
IC50 (Kir3.1/Kir3.4): 100 nM
Papp A→B [2]: 8.7 ×10⁻⁶ cm/s
solubility thermodynamic [17]: 1000 µM (≈ 446 µg/mL)
Kp at 0.5 h [18]: 0.02
IC50 (Kir3.1/Kir3.2 [19]): 100 nM
Cmax [22]: 193 µM
Cmax [23]: 193 µM
Structure (SMILES): O=c1cc(CO)n(-c2c(Cl)cccc2Cl)c2c(Cl)cnc(OC[C@H](O)CO)c12
Activity (Cavia porcellus [6]): Active
Activity (Cavia porcellus [7]): Active
Activity [8]: Non-Toxic
Activity [9]: Non-Toxic
Activity [10]: Non-Toxic
Activity [11]: Non-Toxic
Activity [12]: Non-Toxic
IC50 [13]: > 50000 nM
IC50 [14]: > 50000 nM
IC50 [15]: > 50000 nM
IC50 [16]: > 50000 nM
Ratio (MDCK): 13.5
NOAEL [20]: 75 mg/kg
NOAEL at 144 h [21]: 75 mg/kg

IC50 (Kir3.1/Kir3.4): 220 nM
solubility [1]: 240 µM (≈ 107 µg/mL)
Papp A→B [2]: 20.4 ×10⁻⁶ cm/s
Structure (SMILES): Cc1cc(=O)c2c(F)cncc2n1-c1c(Cl)cc(C#CCN2CCOCC2)cc1Cl
Ratio (MDCK): 1.1

IC50 (Kir3.1/Kir3.4): > 5000 nM
solubility [1]: 680 µM (≈ 327 µg/mL)
Papp A→B [2]: 13.1 ×10⁻⁶ cm/s
Structure (SMILES): Cc1cc(=O)c2c(OCC(O)CO)nc(N3CCOCC3)cc2n1-c1c(Cl)cccc1Cl (stereo unspecified)
